Results from patent US4289786A, “Farnesylacetic acid ester derivatives” (Kuraray Co., Ltd., priority 1978, dated 1981).

Key:
[1] = system: stress ulcer on the gastric gland; experiment: Stress ulcer (water immersion restraint); assay type: in vivo, male Donryu rats; conditions: 300 mg/kg oral, 10 minutes before immersion; 23° C. water, seven hours; hydrochlorides
Experimental: Male Donryu rats weighing 240-260 grams were immobilized in wire cages (cf. Japanese Journal of Pharmacology, 18, 9-18 (1968)) and placed under stress by immersing them in water at 23° C. to the level of the breast. Seven hours later, the animals were taken up from the water tank and immediately sacrificed by blowing and the stomach was excised. The stomach was inflated with 1% formalin and then cut open and the ulcer on the gastric gland were measured for length in mm. The total ulcer length per animal was designated as the ulcer index. In the above-mentioned test, the compounds (hydrochlorides) (test compounds (1) and (4)) prepared by the procedure of Examples 1 and 2, respectively and geranyl farnesylacetate were administered orally to the rats 10 minutes before the immersion. In the Table, the prevention ratio has the same meaning as defined for the indomethacin-induced ulcer in Example 16.

[2] = Acute toxicity--1 (oral, rats); assay type: in vivo; conditions: rat, in vivo, Wistar rats, observation 2 weeks, hydrochlorides
Experimental: (§1) Wistar rats, five weeks of age, were fed previously for one week and then subjected to the test. All the test compounds were administered orally. The observation period was 2 weeks. The test compounds (4), (1) and (16) used were the products prepared in the above Examples 2, 1 and 8, respectively, and were all in the form of hydrochlorides.

[3] = system: Wistar rats; experiment: Acute toxicity--1 (oral, rats); assay type: in vivo; conditions: rats
Experimental: as §1

[4] = system: indomethacin-induced ulcers on the gastric mucosa; experiment: Indomethacin-induced ulcer (antiulcerogenic activity); assay type: in vivo, male Donryu rats; conditions: Rattus norvegicus, 7 h; indomethacin 15 mg/kg s.c.; test compound 300 mg/kg oral, 10 minutes prior; hydrochlorides except one quaternary ammonium salt; read-out: Prevention ratio
Experimental: After fasting for 24 hours, male Donryu rats weighing 210 to 230 grams were administered subcutaneously with indomethacin suspended in 1% aqueous solution of carboxymethylcellulose at a dosage level of 15 mg/kg. Seven hours later, the animals were sacrificed by ether inhalation. The rat stomach was cut open and the indomethacin-induced ulcers appearing on the gastric mucosa were measured for their length in mm. The total length of ulcers per animal was designated as the ulcer index. The farnesylacetic acid ester derivatives (test compounds) prepared by any of the synthetic procedures described above and geranyl farnesylacetate as a control were orally administered 10 minutes prior to the indomethacin administration. The antiulcerogenic activity was evaluated in terms of the prevention ratio, i.e. the quotient of the difference in ulcer index between the test compound group and the control group divided by the ulcer index for the control group. The numbers in the test compound column are those previously assigned to the exemplary compounds of the present invention each represented by a structural formula, and the example numbers are the numbers of examples wherein preparation of the corresponding compounds is described. The test compounds were all hydrochlorides except for one quaternary ammonium salt.

[5] = system: ddY mice; experiment: Acute toxicity--2 (oral, mice); assay type: in vivo; conditions: mice
Experimental: (§2) Five-week-old ddY mice were fed previously for one week and then subjected to the test. All the test compounds were administered orally and the observation period was one week. The test compounds (23), (7) and (13) used were the products of the above Example 5, 10 and 4, respectively and were all in the form of hydrochlorides (the product of Example 10 was converted into the hydrochloride by a conventional method).

[6] = Acute toxicity--2 (oral, mice); assay type: in vivo; conditions: mouse, in vivo, ddY mice, observation one week, hydrochlorides
Experimental: as §2

[7] = Aqueous solution of hydrochloride; assay type: physicochemical; conditions: in water
Experimental: Using the lower alkyl esters of farnesylacetic acids shown in Table 1 and the amino alcohols also shown in Table 1, ester exchange reaction was carried out by the procedure of Example 1, to prepare a variety of amine-nitrogen-containing farnesylacetic acid esters and hydrochlorides thereof. In the chemical formula appearing in the table, P stands for a prenyl group, G a geranyl group and F a farnesyl group.

[8] = system: rats; conditions: cited from earlier work
[9] = system: mice; conditions: cited from earlier work
[10] = system: ulcers; conditions: known compounds, prior art; cited from earlier work

Question: Which Prevention ratio [1] does the source give for `CCN(CC)CCOC(=O)CCC=C(C)CCC=C(C)CCC=C(C)C` [(1), 2-diethylaminoethyl farnesylacetate] here?
Answer: 42.1%

Question: What about the LD50 at 336 h [2] of the same compound?
Answer: > 5400 mg/kg

Question: And the “Number of dead animals/number of animals used” value ([3]; dose 4.1 g/kg)?
Answer: 0/5

Question: And the “Number of dead animals/number of animals used” value ([3]; dose 5.4 g/kg)?
Answer: 0/5

Question: And the inhibition in vivo at 300 mg/kg [4]?
Answer: 64.1%

Question: For `CC[N+](CC)(CC)CCOC(=O)CCC=C(C)CCC=C(C)CCC=C(C)C` [(2), farnesylacetoxyethyltriethylammonium bromide], which inhibition in vivo at 300 mg/kg [4] is on record?
Answer: 68.8%

Question: Which results are given for `CC(C)=CCCC(C)=CCCC(C)=CCCC(=O)OCCCN(C)C` [(4), 3-Dimethylaminopropyl farnesylacetate]?
Answer: Prevention ratio [1]: 40.1%; LD50 at 336 h [2]: > 4000 mg/kg; Number of dead animals/number of animals used ([3]; dose 3 g/kg): 0/5; Number of dead animals/number of animals used ([3]; dose 4 g/kg): 0/5; inhibition in vivo at 300 mg/kg [4]: 65.8%

Question: Which “Number of dead animals/number of animals used” value ([5]; dose 6 g/kg) does the source give for `CC(C)=CCCC(C)=CCCC(C)=CCCC(=O)OC(C)(C)CN(C)C` [(7), 1,1-dimethyl-2-dimethylaminoethyl farnesylacetate] here?
Answer: 0/4

Question: And the “Number of dead animals/number of animals used” value ([5]; dose 8 g/kg)?
Answer: 1/3

Question: And the “Number of dead animals/number of animals used” value ([5]; dose 10 g/kg)?
Answer: 3/3

Question: And the LD50 at 168 h [6]?
Answer: 8400 mg/kg

Question: What about the inhibition in vivo at 300 mg/kg [4] of the same compound?
Answer: 91.7%

Question: For `CC(C)=CCCC(C)=CCCC(C)=CCCC(=O)OCCN(CC=C(C)CCC=C(C)C)CC=C(C)CCC=C(C)C` [(13)], which “Appearance of aqueous solution of hydrochloride (water solubility)” value [7] is on record?
Answer: Insoluble

Question: What about the “Number of dead animals/number of animals used” value ([5]; dose 1 g/kg) of the same compound?
Answer: 0/3

Question: And the “Number of dead animals/number of animals used” value ([5]; dose 2 g/kg)?
Answer: 1/3

Question: What about the “Number of dead animals/number of animals used” value ([5]; dose 6 g/kg) of the same compound?
Answer: 2/3

Question: What about the “Number of dead animals/number of animals used” value ([5]; dose 10 g/kg) of the same compound?
Answer: 2/3

Question: What about the “Number of dead animals/number of animals used” value ([5]; dose 20 g/kg) of the same compound?
Answer: 3/3

Question: And the LD50 at 168 h [6]?
Answer: 7000 mg/kg

Question: What about the inhibition in vivo at 300 mg/kg [4] of the same compound?
Answer: 81.3%

Question: Which “Appearance of aqueous solution of hydrochloride (water solubility)” value [7] does the source give for `CCN(CCOC(=O)CCC=C(C)CCC=C(C)CCC=C(C)C)c1ccccc1` [(14)] here?
Answer: Insoluble

Question: And the inhibition in vivo at 300 mg/kg [4]?
Answer: 70.2%

Question: For `CC(C)=CCCC(C)=CCCC(C)=CCC(Cc1ccccc1)C(=O)OCCN(C)C` (stereo not shown) [(16)], which LD50 at 336 h [2] is on record?
Answer: > 15000 mg/kg

Question: And the “Number of dead animals/number of animals used” value ([3]; dose 5 g/kg)?
Answer: 0/5

Question: What about the “Number of dead animals/number of animals used” value ([3]; dose 10 g/kg) of the same compound?
Answer: 1/5

Question: What about the “Number of dead animals/number of animals used” value ([3]; dose 15 g/kg) of the same compound?
Answer: 1/5

Question: And the inhibition in vivo at 300 mg/kg [4]?
Answer: 84.5%

Question: For `CC(C)=CCCC(C)=CCCC(C)=CCCC(=O)OCCN1CCN(CCO)CC1` [(23)], which “Number of dead animals/number of animals used” value ([5]; dose 1.3 g/kg) is on record?
Answer: 0/3

Question: And the “Number of dead animals/number of animals used” value ([5]; dose 4.0 g/kg)?
Answer: 2/4

Question: What about the “Number of dead animals/number of animals used” value ([5]; dose 6.6 g/kg) of the same compound?
Answer: 3/3

Question: And the LD50 at 168 h [6]?
Answer: 4000 mg/kg

Question: What about the inhibition in vivo at 300 mg/kg [4] of the same compound?
Answer: 93.2%

Question: With `CCN1CCC(OC(=O)CCC=C(C)CCC=C(C)CCC=C(C)C)CC1` [(24), N-ethyl-4-farnesylacetoxy-piperidine] as the compound, how does the inhibition in vivo at 300 mg/kg [4] read?
Answer: 76.6%

Question: Which inhibition in vivo at 300 mg/kg [4] does the source give for `CC(C)=CCCC(C)=CCCC(C)=CCCC(=O)OCC1CCCCN1C` (stereo not shown) [(26)] here?
Answer: 47.9%

Question: With `CC(C)=CCCC(C)=CCCC(C)=CCCC(=O)OCC=C(C)CCC=C(C)C` [Geranyl farnesylacetate, 3,7-dimethyl-2,6-octadienyl 5,9,13-trimethyl-4,8,12-tetradecatrienoate] as the compound, how does the LD50 [8] read?
Answer: more than 8 g/kg

Question: And the LD50 [9]?
Answer: more than 8 g/kg

Question: What about the Prevention ratio [1] of the same compound?
Answer: 32.0%

Question: What about the inhibition in vivo at 300 mg/kg [4] of the same compound?
Answer: 6.1%

Question: And the “antiulcer / antiulcerogenic activity (in words)” value [10]?
Answer: high antiulcerogenic activity
